Patent publication US20210353579A1, “HIGH PENETRATION COMPOSITIONS AND USES THEREOF” (Techfields Pharma Co., Ltd., priority 2006, published 2021)

Columns and labels:
mice = assay: Analgesic activity, acetic acid writhing; format: in vivo
Method: The prodrug compounds are administered either transdermally or orally. The parent compounds are administered orally. The number of writhing that occurred when mice are administered the acetic acid solution are counted, and the rate of inhibition based on the control group which was not pretreated with any test compounds is calculated. […] The A group is the control group.

human skin tissue = settings: pH 7.4
rats = assay: Antipyretic activity, E. coli suspension as pyrogen; format: in vivo; settings: in °C (unit assumed)
Method: Rats are administered with sterilized E. coli suspension as a pyrogen. Each group of rats are administered with a prodrug compounds or parent compounds at a dosage specified below. The prodrug compounds are administered either orally or transdermally. The parent compounds are administered orally.

[1] = Plasma levels after transdermal administration to hairless mice; format: in vivo; settings: mouse, in vivo
Method: Tested compounds (20% solution or suspension in 1 mL isopropanol) are administered transdermally to the skin of intact hairless mice. The plasma levels of the parent compounds are determined by HPLC.

rat = settings: rats
Method: The acute toxicity of the prodrug compounds and parent compounds are measured by LD50 of rat.

[2] = 50 mg/kg transdermally, 60 minutes before acetic acid
[3] = 50 mg/kg transdermally, 30 min before acetic acid
[4] = 100 mg/kg transdermally, 30 min before acetic acid
[5] = 50 mg/kg orally, 30 min before acetic acid
[6] = 100 mg/kg orally, 30 min before acetic acid
[7] = 100 mg/kg transdermally, 60 minutes before acetic acid
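Wherever LD50 of HPP is given: acute toxicity in rats expressed as LD50, determined for both prodrugs and their parent compounds.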

Compound	In vitro penetration rate (apparent flux), prodrug compounds (human skin tissue) [μg/cm^2/h]	Peak plasma concentration of parent compound after prodrug compound [1] [mg/L]	t, time to peak plasma level of parent compound after prodrug compound [1] [min]	LD50 of HPP (rat) [mg/kg]	% (rate of writhing inhibition) (mice; [4]) [%]	No. of Writhing (mice; [4])	body temperature, t = 0 min (rats; 100 mg/kg transdermally)	body temperature, t = 90 min (rats; 100 mg/kg transdermally)	body temperature, t = 180 min (rats; 100 mg/kg transdermally)	body temperature, t = 270 min (rats; 100 mg/kg transdermally)	further results
4-N,N-dimethylaminobutyryloxy-2-methyl-N-[5-Methyl-3-isoxolyl-2H-1,2-benzothiazine-3-carboxamide 1,1-dioxide].HCl	1800	20	50	570							% (rate of writhing inhibition) (mice; [2]): 55%; No. of Writhing (mice; [2]): 15.8; body temperature, t = 0 min (rats; 25 mg/kg transdermally): 37.52 ± 0.06; body temperature, t = 90 min (rats; 25 mg/kg transdermally): 36.62 ± 0.07; body temperature, t = 180 min (rats; 25 mg/kg transdermally): 36.53 ± 0.06; body temperature, t = 270 min (rats; 25 mg/kg transdermally): 36.60 ± 0.05
Cc1cnc(NC(=O)C2=C(OC(=O)CCCN(C)C)c3ccccc3S(=O)(=O)N2C)s1.Cl [4-N,N-dimethylaminobutyryloxy-2-methyl-N-(5-methyl-2-thiazolyl)-2H-1,2-benzothiazine-3-carboxamide-1,1-dioxide.HCl]	1900	20		590							% (rate of writhing inhibition) (mice; [2]): 48%; No. of Writhing (mice; [2]): 18.2; body temperature, t = 0 min (rats; 25 mg/kg transdermally): 37.57 ± 0.07; body temperature, t = 90 min (rats; 25 mg/kg transdermally): 36.53 ± 0.08; body temperature, t = 180 min (rats; 25 mg/kg transdermally): 36.52 ± 0.08; body temperature, t = 270 min (rats; 25 mg/kg transdermally): 36.50 ± 0.07
CN(C)CCCC(=O)OC1=C(C(=O)Nc2ccccn2)N(C)S(=O)(=O)c2cc(Cl)sc21.Cl [6-chloro-4-N,N-dimethylaminobutyryloxy-2-methyl-N-2-pyridinyl-2H-thieno[2,3-e]-1,2-thiazine-3-carboxamide 1,1-dioxide.HCl]	1600	20		580							% (rate of writhing inhibition) (mice; [2]): 53%; No. of Writhing (mice; [2]): 16.5; body temperature, t = 0 min (rats; 25 mg/kg transdermally): 37.55 ± 0.05; body temperature, t = 90 min (rats; 25 mg/kg transdermally): 36.66 ± 0.06; body temperature, t = 180 min (rats; 25 mg/kg transdermally): 36.60 ± 0.06; body temperature, t = 270 min (rats; 25 mg/kg transdermally): 36.61 ± 0.07
CC(=O)O.CCN(CC)CCOC(=O)C(C)c1cccc(C(=O)c2ccccc2)c1 (centres unmarked) [diethylaminoethyl 2-(3-benzoylphenyl) propionate.AcOH]	1150	20	40	300							% (rate of writhing inhibition) (mice; [3]): 59%; No. of Writhing (mice; [3]): 14.2; body temperature, t = 0 min (rats; 50 mg/kg transdermally): 37.28 ± 0.06; body temperature, t = 90 min (rats; 50 mg/kg transdermally): 36.65 ± 0.06; body temperature, t = 180 min (rats; 50 mg/kg transdermally): 36.58 ± 0.08; body temperature, t = 270 min (rats; 50 mg/kg transdermally): 36.60 ± 0.07
CC(=O)O.CCN(CC)CCOC(=O)C(C)c1cccc(Oc2ccccc2)c1 (centres unmarked) [diethylaminoethyl 2-(3-phenoxyphenyl) propionate.AcOH]	1250	20	40	1500							% (rate of writhing inhibition) (mice; [3]): 60%; No. of Writhing (mice; [3]): 14.0; body temperature, t = 0 min (rats; 50 mg/kg transdermally): 37.28 ± 0.06; body temperature, t = 90 min (rats; 50 mg/kg transdermally): 36.65 ± 0.06; body temperature, t = 180 min (rats; 50 mg/kg transdermally): 36.58 ± 0.08; body temperature, t = 270 min (rats; 50 mg/kg transdermally): 36.56 ± 0.07
CC(=O)O.CCN(CC)CCOC(=O)C(C)c1ccc2oc(-c3ccc(Cl)cc3)nc2c1 (stereo not drawn) [diethylaminoethyl 2-(4-chlorophenyl)-α-methyl-5-benzoxazoleacetate.AcOH]	4000	2000	50	1300	51	17.1	37.25 ± 0.07	36.82 ± 0.06	36.70 ± 0.05	36.50 ± 0.08	
CC(=O)O.CCN(CC)CCOC(=O)C(C)c1ccc2cc(OC)ccc2c1 (centres unmarked) [diethylaminoethyl 2-(6-methoxy-2-naphthyl)propionate.AcOH]	3500	2000	50	2200	51	17.1	37.33 ± 0.07	36.80 ± 0.06	36.72 ± 0.05	36.50 ± 0.08	
CC(=O)O.CCN(CC)CCOC(=O)C(C)c1ccc(CC(C)C)cc1 (centres unmarked) [diethylaminoethyl 2-(ρ-isobutylphenyl) propionate.AcOH]	1250	120	30	1800	71	9.8	37.27 ± 0.06	36.30 ± 0.06	36.35 ± 0.08	36.31 ± 0.07	% (rate of writhing inhibition) (mice; [5]): 59%; No. of Writhing (mice; [5]): 14.1; % (rate of writhing inhibition) (mice; [3]): 61%; No. of Writhing (mice; [3]): 13.3; % (rate of writhing inhibition) (mice; [6]): 70%; No. of Writhing (mice; [6]): 10.2; body temperature, t = 0 min (rats; 100 mg/kg orally): 37.22 ± 0.07; body temperature, t = 90 min (rats; 100 mg/kg orally): 36.40 ± 0.06; body temperature, t = 180 min (rats; 100 mg/kg orally): 36.50 ± 0.05; body temperature, t = 270 min (rats; 100 mg/kg orally): 36.45 ± 0.08; body temperature, t = 0 min (rats; 150 mg/kg orally): 37.24 ± 0.08; body temperature, t = 90 min (rats; 150 mg/kg orally): 36.30 ± 0.05; body temperature, t = 180 min (rats; 150 mg/kg orally): 36.35 ± 0.07; body temperature, t = 270 min (rats; 150 mg/kg orally): 36.38 ± 0.08; body temperature, t = 0 min (rats; 150 mg/kg transdermally): 37.26 ± 0.05; body temperature, t = 90 min (rats; 150 mg/kg transdermally): 36.25 ± 0.05; body temperature, t = 180 min (rats; 150 mg/kg transdermally): 36.30 ± 0.07; body temperature, t = 270 min (rats; 150 mg/kg transdermally): 36.20 ± 0.05
CC(=O)O.CCN(CC)CCOC(=O)c1cccnc1Nc1cccc(C(F)(F)F)c1C [diethylaminoethyl 2-[[2-methyl-3-(trifluoromethyl)phenyl]amino]-3-pyridinecarboxylate.AcOH]	1700	20	50	1100			37.23 ± 0.06	36.69 ± 0.06	36.52 ± 0.08	36.40 ± 0.07	% (rate of writhing inhibition) (mice; [7]): 55%; No. of Writhing (mice; [7]): 15.7
CC(=O)O.CCN(CC)CCOC(=O)c1cccnc1Nc1cccc(C(F)(F)F)c1 [diethylaminoethyl 2-[[3-(trifluoromethyl)phenyl]amino]-3-pyridinecarboxylate.AcOH]	1800	20	50	750			37.25 ± 0.07	36.82 ± 0.06	36.70 ± 0.05	36.50 ± 0.08	% (rate of writhing inhibition) (mice; [7]): 57%; No. of Writhing (mice; [7]): 15.2
CC(=O)O.CCN(CC)CCOC(=O)Cc1cccc(C(=O)c2ccccc2)c1N [diethylaminoethyl 2-amino-3-benzoylbenzeneacetate.AcOH]	800	20	50	1000	61	13.8	37.22 ± 0.06	36.65 ± 0.05	36.62 ± 0.08	36.58 ± 0.07	
CC(=O)O.CCN(CC)CCOC(=O)C(C)c1ccc(N2Cc3ccccc3C2=O)cc1 (stereo not drawn) [diethylaminoethyl 4-(1,3-dihydro-1-oxo-2H-isoindol-2-yl)-α-methylbenzeneacetate.AcOH]	4200	2000	50	3500	62	13.2	37.28 ± 0.06	36.65 ± 0.06	36.58 ± 0.08	36.56 ± 0.07	
CC(=O)O.CCN(CC)CCOC(=O)C1CCc2cc(C3CCCCC3)c(Cl)cc21 (centres unmarked) [diethylaminoethyl 6-chloro-5-cyclohexyl-2,3-dihydro-1H-indene-1-carboxylate.AcOH]	4000	2000	50	200	57	15.2	37.25 ± 0.06	36.63 ± 0.06	36.55 ± 0.08	36.51 ± 0.07	
